How the values were obtained:
[1] = molecular target: T1, ROCK2 (Homo sapiens, UniProt O75116); assay: MIB/MS kinome profiling of inhibitor-treated OVSAHO cells; format: cell-based; conditions: 2 μM, 4 hours
T1 construct: endogenous in cells; host or cells: OVSAHO
Description: (§1) OVSAHO cells were treated with 2 μM of inhibitor for 4 hours and analyzed by MIB/MS. Scatterplot depicts difference in kinase MIB-binding of drug treated relative to control DMSO as determined by Students T-test.
(§2) MIB-based kinome profiling was performed on several of these molecules in HGSOC cells to determine kinome-wide inhibition profiles.
Experiments using MIB/MS were performed as previously described (Duncan et al., Cell, 2012, 149, 307-321; and Kurimchak et al., Cell Reports, 2016, 16, 1273-1286). Briefly, cells or tumors were lysed on ice in buffer containing 50 mM HEPES (pH 7.5), 0.5% Triton X-100, 150 mM NaCl, 1 mM EDTA, 1 mM EGTA, 10 mM sodium fluoride, 2.5 mM sodium orthovanadate, 1× protease inhibitor cocktail (Roche), and 1% each of phosphatase inhibitor cocktails 2 and 3 (Sigma). Particulate was removed by centrifugation of lysates at 13,000 rpm for 10 minutes at 4° C. and filtration through 0.2 μm syringe filters. Protein concentrations were determined by BCA analysis (Thermo). To compare kinome signatures within and across such large sample sizes, a super-SILAC method was designed (Neubert et al., Nat. Meth., 2010, 7, 361-362) consisting of a cocktail of cancer cell lines that encompasses the activity of the “cancer kinome” to be used as a control for individual samples. […] An equal amount of the HKS was added to the non-labeled sample (cell, tumor or normal tissue) providing a quantitative strategy to compare kinome activity/levels across samples, amongst treatments and, importantly, across time. […]
(§3) Proteolytic peptides were resuspended in 0.1% formic acid and separated with a Thermo RSLC Ultimate 3000 on a Thermo Easy-Spray C18 PepMap 75 μm×50 cm C-18 2 μm column with a 240 minute gradient of 4-25% acetonitrile with 0.1% formic acid at 300 nL/min and 50° C. Eluted peptides were analyzed by a Thermo Q Exactive plus mass spectrometer utilizing a top 15 methodology in which the 15 most intense peptide precursor ions were subjected to fragmentation.

[2] = system: COV362 cells; assay: Migration assay (xCELLigence RTCA); format: cell-based, human; conditions: 1 μM, 24 hour period
Description: COV362 cells were treated with 1 μM of A-674563 or DMSO and migration monitored over a 24 hour period using the xCELLigence Real-Time Cell Analyzer (RTCA).
Cell migration assays were performed using the xCELLigence RTCA DP Instrument (ACEA Biosciences) in a CIM-Plate 16 (ACEA Biosciences). Complete medium was added to the lower chambers of the CIM-Plate (or serum free medium for negative control). In the upper chambers, 30 μL serum free medium was added to each well and the CIM-Plate was placed in the instrument to equilibrate for 1 hr at 37° C. Following this equilibration step, a background measurement was taken. The CIM-Plate was removed from the instrument, and COV362 cells were added to the upper chambers at 50,000 cells per well in serum free medium. The CIM-Plate was left at 25° C. for 30 minutes to allow the cells to settle at the bottom of the well. The plate was then returned to the instrument, and cell index reads were taken once every 15 minutes for 24 hours. For the siRNA experiment, the cells were transfected 24 hours prior to the start of the assay. For the A-674563 experiment, cells were pretreated with 1 μM inhibitor or DMSO 24 hours prior, and both upper and lower chambers contained 1 μM inhibitor or DMSO.

[3] = molecular target: T2, MRCKB (Homo sapiens, UniProt Q9Y5S2); assay: MIB/MS kinome profiling of inhibitor-treated OVSAHO cells; format: cell-based; conditions: 2 μM, 4 hour treatment
T2 construct: endogenous in cells; host or cells: OVSAHO
T2 sequence (Q9Y5S2 whole entry): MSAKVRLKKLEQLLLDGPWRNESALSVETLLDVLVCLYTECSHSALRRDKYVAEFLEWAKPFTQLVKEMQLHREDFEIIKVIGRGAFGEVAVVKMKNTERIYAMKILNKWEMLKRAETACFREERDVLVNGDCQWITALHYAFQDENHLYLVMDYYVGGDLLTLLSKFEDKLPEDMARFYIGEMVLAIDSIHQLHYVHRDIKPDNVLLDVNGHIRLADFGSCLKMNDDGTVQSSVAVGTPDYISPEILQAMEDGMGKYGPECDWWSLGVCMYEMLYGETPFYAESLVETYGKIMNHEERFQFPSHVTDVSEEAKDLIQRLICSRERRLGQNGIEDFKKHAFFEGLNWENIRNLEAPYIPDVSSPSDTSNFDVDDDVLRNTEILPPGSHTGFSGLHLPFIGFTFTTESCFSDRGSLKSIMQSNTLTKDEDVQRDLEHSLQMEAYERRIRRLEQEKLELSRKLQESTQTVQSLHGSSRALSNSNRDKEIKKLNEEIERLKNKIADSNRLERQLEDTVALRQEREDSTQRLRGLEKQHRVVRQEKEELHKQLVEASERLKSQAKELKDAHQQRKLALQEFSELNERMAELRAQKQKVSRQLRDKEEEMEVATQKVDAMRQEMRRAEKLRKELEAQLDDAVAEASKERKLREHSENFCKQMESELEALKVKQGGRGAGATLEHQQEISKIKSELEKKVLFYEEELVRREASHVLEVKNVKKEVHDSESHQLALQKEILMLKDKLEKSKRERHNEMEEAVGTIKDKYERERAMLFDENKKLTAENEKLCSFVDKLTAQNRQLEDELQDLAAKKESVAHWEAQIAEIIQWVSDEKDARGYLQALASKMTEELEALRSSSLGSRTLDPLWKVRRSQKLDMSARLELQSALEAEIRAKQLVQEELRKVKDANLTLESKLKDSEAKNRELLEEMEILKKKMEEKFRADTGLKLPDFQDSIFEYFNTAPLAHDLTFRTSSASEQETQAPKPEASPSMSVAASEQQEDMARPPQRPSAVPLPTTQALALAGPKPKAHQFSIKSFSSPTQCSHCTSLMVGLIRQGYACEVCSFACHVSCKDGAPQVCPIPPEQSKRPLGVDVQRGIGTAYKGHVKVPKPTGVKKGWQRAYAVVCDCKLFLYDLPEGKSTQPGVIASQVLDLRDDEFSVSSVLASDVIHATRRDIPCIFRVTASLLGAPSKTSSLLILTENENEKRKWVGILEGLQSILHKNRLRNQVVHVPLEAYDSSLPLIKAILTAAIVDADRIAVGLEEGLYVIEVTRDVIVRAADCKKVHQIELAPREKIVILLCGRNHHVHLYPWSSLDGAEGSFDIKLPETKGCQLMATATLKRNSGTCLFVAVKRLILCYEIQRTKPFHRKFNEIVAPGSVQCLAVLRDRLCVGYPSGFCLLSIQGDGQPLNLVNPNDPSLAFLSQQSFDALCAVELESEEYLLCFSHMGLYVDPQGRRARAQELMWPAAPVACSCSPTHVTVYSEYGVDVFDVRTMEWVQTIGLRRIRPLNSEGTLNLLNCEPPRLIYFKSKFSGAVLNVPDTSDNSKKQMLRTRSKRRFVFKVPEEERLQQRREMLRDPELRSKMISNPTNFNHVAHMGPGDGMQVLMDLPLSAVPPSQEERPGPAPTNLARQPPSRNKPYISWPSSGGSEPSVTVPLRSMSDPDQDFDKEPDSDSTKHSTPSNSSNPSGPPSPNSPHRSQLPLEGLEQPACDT
Description: (§4) OVSAHO cells were treated with inhibitors at a dose of 2 μM for 4 hours and kinase inhibition profiles determined by MIB/MS. Bar graph depicts % of kinase bound to MIBs relative to DMSO control as determined by label free quantitation.
as §1, §2
(§5) Experiments using MIB/MS were performed as previously described (Duncan et al., Cell, 2012, 149, 307-321; and Kurimchak et al., Cell Reports, 2016, 16, 1273-1286). Briefly, cells or tumors were lysed on ice in buffer containing 50 mM HEPES (pH 7.5), 0.5% Triton X-100, 150 mM NaCl, 1 mM EDTA, 1 mM EGTA, 10 mM sodium fluoride, 2.5 mM sodium orthovanadate, 1× protease inhibitor cocktail (Roche), and 1% each of phosphatase inhibitor cocktails 2 and 3 (Sigma). Particulate was removed by centrifugation of lysates at 13,000 rpm for 10 minutes at 4° C. and filtration through 0.2 μm syringe filters. Protein concentrations were determined by BCA analysis (Thermo). To compare kinome signatures within and across such large sample sizes, a super-SILAC method was designed (Neubert et al., Nat. Meth., 2010, 7, 361-362) consisting of a cocktail of cancer cell lines that encompasses the activity of the “cancer kinome” to be used as a control for individual samples. Five cancer cell lines were selected from the NCI-60 panel (UACC257, MOLT4, COL0205, ACHN and PC3) that differed in their origin, gene expression patterns and mutation status. The cancer cell lines were labeled using SILAC and mixed equally providing a diverse SILAC ([^13C6,^15N4] arginine (Arg^10) and […] (Lys^8)) heavy kinome reference standard (HKS) to be used repeatedly in kinome profiling assays. An equal amount of the HKS was added to the non-labeled sample (cell, tumor or normal tissue) providing a quantitative strategy to compare kinome activity/levels across samples, amongst treatments and, importantly, across time. […]
as §3

[4] = molecular target: MRCKA (Homo sapiens, UniProt Q5VT25); assay: as above; format: cell-based; design: endogenous in cells; host or cells: OVSAHO; conditions: 2 μM, 4 hour treatment
Sequence of MRCKA (Q5VT25 whole entry): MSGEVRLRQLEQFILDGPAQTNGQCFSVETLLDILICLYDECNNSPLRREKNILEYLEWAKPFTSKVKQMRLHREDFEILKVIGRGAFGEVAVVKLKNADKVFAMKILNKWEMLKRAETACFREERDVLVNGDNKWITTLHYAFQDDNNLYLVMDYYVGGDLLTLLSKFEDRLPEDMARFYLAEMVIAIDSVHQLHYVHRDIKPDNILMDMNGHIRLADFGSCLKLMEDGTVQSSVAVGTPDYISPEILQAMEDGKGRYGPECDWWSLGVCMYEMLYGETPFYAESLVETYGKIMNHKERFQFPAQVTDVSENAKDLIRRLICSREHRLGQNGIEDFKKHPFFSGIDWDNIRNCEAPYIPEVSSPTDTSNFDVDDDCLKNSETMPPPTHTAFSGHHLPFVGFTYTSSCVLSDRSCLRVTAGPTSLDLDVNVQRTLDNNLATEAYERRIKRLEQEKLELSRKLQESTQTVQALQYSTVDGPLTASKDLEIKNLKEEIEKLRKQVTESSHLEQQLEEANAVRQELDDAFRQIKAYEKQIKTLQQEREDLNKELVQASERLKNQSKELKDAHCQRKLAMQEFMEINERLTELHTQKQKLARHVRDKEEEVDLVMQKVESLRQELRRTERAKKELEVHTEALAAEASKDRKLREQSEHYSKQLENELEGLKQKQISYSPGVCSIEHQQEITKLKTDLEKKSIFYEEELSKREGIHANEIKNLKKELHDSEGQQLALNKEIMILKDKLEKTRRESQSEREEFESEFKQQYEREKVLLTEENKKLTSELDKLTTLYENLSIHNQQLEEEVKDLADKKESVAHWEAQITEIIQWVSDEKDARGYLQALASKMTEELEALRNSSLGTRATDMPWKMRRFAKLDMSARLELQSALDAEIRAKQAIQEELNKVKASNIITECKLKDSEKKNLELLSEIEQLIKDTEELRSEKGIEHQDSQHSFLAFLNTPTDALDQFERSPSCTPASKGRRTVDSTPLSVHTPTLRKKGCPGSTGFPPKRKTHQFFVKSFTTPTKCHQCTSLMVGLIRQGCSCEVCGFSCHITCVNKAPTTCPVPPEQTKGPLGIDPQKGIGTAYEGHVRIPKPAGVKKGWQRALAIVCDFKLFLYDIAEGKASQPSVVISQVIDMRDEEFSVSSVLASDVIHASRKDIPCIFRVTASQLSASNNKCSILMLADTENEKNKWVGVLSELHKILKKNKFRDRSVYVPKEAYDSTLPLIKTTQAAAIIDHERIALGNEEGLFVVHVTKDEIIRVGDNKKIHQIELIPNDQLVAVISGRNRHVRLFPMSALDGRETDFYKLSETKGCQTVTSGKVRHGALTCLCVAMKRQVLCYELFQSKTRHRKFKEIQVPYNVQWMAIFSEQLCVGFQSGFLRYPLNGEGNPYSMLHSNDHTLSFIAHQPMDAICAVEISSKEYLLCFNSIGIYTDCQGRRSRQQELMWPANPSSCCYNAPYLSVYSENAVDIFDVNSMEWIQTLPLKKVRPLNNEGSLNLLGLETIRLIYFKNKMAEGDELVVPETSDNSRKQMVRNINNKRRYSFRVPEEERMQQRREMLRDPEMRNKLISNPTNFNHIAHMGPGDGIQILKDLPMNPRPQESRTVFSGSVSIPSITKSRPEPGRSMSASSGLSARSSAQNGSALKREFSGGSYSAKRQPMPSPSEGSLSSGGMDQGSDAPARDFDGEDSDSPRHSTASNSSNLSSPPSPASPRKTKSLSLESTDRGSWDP
Description: as §4, §1, §2, §5, §3

[5] = system: HGSOC cells; assay: Apoptosis in inhibitor-treated HGSOC cells; format: cell-based, human; conditions: increasing doses

T1 sequence (O75116 whole entry): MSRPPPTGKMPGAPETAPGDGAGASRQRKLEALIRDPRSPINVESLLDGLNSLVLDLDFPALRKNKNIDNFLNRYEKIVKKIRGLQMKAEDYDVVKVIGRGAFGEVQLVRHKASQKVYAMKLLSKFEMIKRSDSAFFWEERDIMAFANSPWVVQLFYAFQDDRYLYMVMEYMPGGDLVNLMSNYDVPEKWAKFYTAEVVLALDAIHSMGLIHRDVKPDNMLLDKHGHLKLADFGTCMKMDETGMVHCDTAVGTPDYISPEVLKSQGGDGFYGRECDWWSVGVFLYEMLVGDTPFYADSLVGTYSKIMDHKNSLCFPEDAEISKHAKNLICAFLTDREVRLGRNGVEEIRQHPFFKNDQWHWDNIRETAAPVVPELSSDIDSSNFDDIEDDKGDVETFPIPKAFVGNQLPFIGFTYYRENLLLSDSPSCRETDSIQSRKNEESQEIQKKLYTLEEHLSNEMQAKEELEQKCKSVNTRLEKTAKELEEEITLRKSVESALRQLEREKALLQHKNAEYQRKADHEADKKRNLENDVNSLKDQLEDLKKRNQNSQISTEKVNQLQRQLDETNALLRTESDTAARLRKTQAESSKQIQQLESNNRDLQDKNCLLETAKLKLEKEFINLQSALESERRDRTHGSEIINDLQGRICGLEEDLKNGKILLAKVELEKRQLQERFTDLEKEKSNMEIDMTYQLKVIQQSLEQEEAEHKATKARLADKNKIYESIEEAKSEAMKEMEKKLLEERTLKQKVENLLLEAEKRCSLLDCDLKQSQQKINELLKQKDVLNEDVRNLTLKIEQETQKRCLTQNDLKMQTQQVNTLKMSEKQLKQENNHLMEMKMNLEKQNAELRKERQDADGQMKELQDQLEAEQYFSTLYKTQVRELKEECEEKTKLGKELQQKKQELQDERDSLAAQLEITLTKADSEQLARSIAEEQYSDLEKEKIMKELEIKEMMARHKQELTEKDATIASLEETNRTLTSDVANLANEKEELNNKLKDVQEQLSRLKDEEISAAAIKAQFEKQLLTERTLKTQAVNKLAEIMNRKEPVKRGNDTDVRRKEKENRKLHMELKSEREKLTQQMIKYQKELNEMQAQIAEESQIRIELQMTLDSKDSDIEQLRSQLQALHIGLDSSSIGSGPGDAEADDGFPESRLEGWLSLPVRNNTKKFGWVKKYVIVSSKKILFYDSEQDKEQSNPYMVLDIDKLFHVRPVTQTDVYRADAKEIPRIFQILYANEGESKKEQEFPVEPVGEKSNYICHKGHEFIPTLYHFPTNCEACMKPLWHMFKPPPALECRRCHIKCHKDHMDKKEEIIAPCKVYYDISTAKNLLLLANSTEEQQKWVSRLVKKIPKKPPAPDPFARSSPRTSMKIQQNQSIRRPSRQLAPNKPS

Cc1[nH]nc2ccc(-c3cncc(OC[C@@H](N)Cc4ccccc4)c3)cc12 [A-674563]
MIB-binding of ROCK2 [1]: did not influence
cell migration [2]: reduced cell migration
MIB-binding of MRCKB relative to DMSO [3]: Reduced MIB-binding
MIB-binding of MRCKA relative to DMSO [4]: greatest reduction
apoptosis [5]: induced apoptosis

From patent publication US20210318318A1, “Kinase Activity In Tumors” (Institute For Cancer Research d/b/a The Research Institute …, priority 2018, published 2021)
